One assay deals with Panc1 cells. Briefly: MTT assay, compounds related to LD030 on Panc1 cells. The class given is cell-based, human. Conditions: Homo sapiens, PANC-1, 48 hours, read-out: Effects on Panc1 Cells (inhibitory percentage). How it is done: (§1) MTT assay was used to detect cell viability after being treated with different compounds of the present invention related to LD030. The cell lines treated were on non-small lung cancer cell line A549, HepG2 cells and Panc1 cells.
(§2) MTT preservation solution preparation: 0.5 g MTT was dissolved in 100 ml of phosphate buffer solution (PBS), and bacteria contaminates were removed with a 0.22 μm membrane filter to obtain 0.5% MTT solution, which was stored in the dark at −20° C.
(§3) MTT working solution preparation: MTT preservation solution was diluted 10 times with sterile PBS to obtain MTT working solution.
(§4) 1640 complete medium preparation: 1640 base medium was added with an amount of fetal bovine serum (FBS) so that the medium contains 10% FBS by volume. Then an amount of double-antibody (i.e., penicillin and streptomycin) was added to make final concentration of penicillin at 100 units/ml and streptomycin at 100 ug/ml.
(§5) The experimental procedure is as follows:
(§6) (1) Take trypsin digested logarithmic phase cells and adjust the concentration of the cell suspension to 6×10^4 cell/ml, and then add 100 ul suspension of the cells under the test to each well on a 96-well plate and adjusted to a density of 6000 cells/well. The edge orifice is filled with sterile PBS.
(§7) (2) Placed the 96-well plate into a 37° C. incubator with 5% CO2 and incubate it overnight.
(§8) (3) Dissolve the test compounds in 200 ul DMSO to get a 5 mg/ml solution and dilute it to get 100 uM, 10 uM, 1 uM and 0.1 uM solutions. Add 100 ul of a solution to each of three repeat wells. Set a control well which has cells but without the compound of the present invention and a blank cell which contains no cells.
(§9) (4) Put the 96-well plate into a 37° C. incubator with 5% CO2 and incubate it for 48 hours. Examine the cells daily under a microscope.
(§10) (5) After being cultured for 48 hours, centrifuge and discard the culture liquid. Add 100 ul MTT working solution to each well, and continue incubating for 4 h.
(§11) (6) Terminate the culture, and carefully remove the culture medium. Then add 100 ul DMSO to each well and shake it at a low speed in a shaker for 10 min to make all crystals fully dissolved. The absorbance value of each well was measured by an enzyme-linked immunosorbent detector at the OD570 nm, and the inhibition rate of the different compounds with different concentration on cell growth can be obtained.
Background: Tetrazolium dyes change colour on reduction, which living cells bring about.

Assay [1] deals with HepG2 cells. Put plainly: MTT assay, compounds related to LD030 on HepG2 cells. Type of assay: cell-based, human. Conditions: Homo sapiens, HepG2, 48 hours, read-out: Effects on HepG2 Cells (inhibitory percentage). How it is done:
as §1, §2, §3, §4, §5, §6, §7, §8, §9, §10, §11

Assay [2] relates to non-small lung cancer cell line A549. Put plainly: MTT assay, compounds related to LD030 on A549 cells. Type of assay: cell-based. The following applies: Homo sapiens, A549, 48 hours, read-out: Effects on A549 Cells (inhibitory percentage). How it is done:
as §1, §2, §3, §4, §5, §6, §7, §8, §9, §10, §11

Assay [3] deals with HepG2 cells. Put plainly: Nude mouse model of hepatocellular carcinoma (HepG2), growth rate. The following applies: nude mouse model, 75 mg/kg, twice a day, versus blank carrier control. The class given is in vivo, nude mice. How it is done: In contrast, LD30 (1 mg/kg/time, twice a day) reduced the growth rate of HepG2 cells by about 63%, with statistical significance (p<0.05) when compared with the ethanol control.
LD030 was also compared with Nexavar for their effects on the growth rate of HepG2 cells.
A further study was conducted on liver cancer cell line in nude mice (HepG2), where Nexavar's dosage was 30 mg/kg, twice a day and LD030's dosage was 1 mg/kg, twice a day along with a blank control and a combination of LD030 and Nexavar. The result is shown in FIG. 21 where Nr stands for Nexavar. […] When compared with the blank, LD030's effect is statistically significant (p<0.05).

The subject of assay [4] is pancreatic cancer cell lines. Briefly: Nude mouse model of pancreatic cancer (xenograft), tumor size. Conditions: 43 days. Type of assay: in vivo, NOD/SCID mice. How it is done:
Two strains of pancreatic cancer cell lines were selected to be grafted to nonobese diabetic/severe combined immunodeficient (NOD/SCID) mice, and the tumor was inoculated in mouse ventral sides. About two weeks, they were used as a nude mouse model of pancreatic cancer. […] Each of the above groups. The treatment continued for 43 days (gemcitabine alone group 2 times a week; other groups 3 times a week), and then tumor size was recorded as shown in FIG. 16. […] Further experiments were conducted to study the effects of the combinational use of LD030 with gemcitabine as compared being used alone on tumor inhibition. Four treatment groups were set up: (a) blank control, (2) gemcitabine (25 mg/kg/time, 2 times a week), (3) LD030 (0.5 mg/kg/time, 3 times a week), (4) LD030 (0.5 mg/kg/time, 3 times a week) together with gemcitabine (25 mg/kg/time, 2 times a week).

Data on 3 molecules can be found in patent US9522935B2, “Commands and method of treating cancer via RHO pathway” (priority 2013, dated 2016).

Turning to `CC(=O)O[C@H]1CC[C@]2(C)C3CC[C@]4(C)C(C(C)CCC(O)C(C)(C)O)CC[C@@]4(C)C3CC[C@H]2C1(C)C` (stereo partly drawn) [LD 028], the inhibition at 0.1 µM in the assay on Panc1 cells (0.1 μM) is -9.19%; in the assay on HepG2 cells [1] (0.1 μM), 29.4%; in assay [2] (0.1 μM), 3.24%. For the same molecule, the inhibition at 1 µM in the assay with Panc1 cells (1 μM) was -0.48%; in the assay on HepG2 cells [1] (1 μM), 37.4%; in assay [2] (1 μM), 10%. Besides, the inhibition at 10 µM was -0.4% in the assay with Panc1 cells (10 μM), 67.8% with HepG2 cells [1] (10 μM) and -1.75% in assay [2] (10 μM). Also, the figures for the inhibition at 100 µM (in the assay on Panc1 cells (100 μM); in the assay on HepG2 cells [1] (100 μM); in assay [2] (100 μM)) were 0.16%, 45.8% and 29.2%, respectively.
In the case of `CNC(=O)c1cc(Oc2ccc(NC(=O)Nc3ccc(Cl)c(C(F)(F)F)c3)cc2)ccn1` [Nexavar, reference compound], the “reduction of growth rate of HepG2 cells” value in the assay on HepG2 cells [3] is on record as “about 80%”.
With `Nc1ccn([C@@H]2O[C@H](CO)[C@@H](O)C2(F)F)c(=O)n1` [gemcitabine, reference compound], the tumor volume reduced in assay [4] (25 mg/kg/time gemcitabine, FIG. 15) is listed as 37%. For the same molecule, the tumor size reduced in assay [4] (gemcitabine 25 mg/kg/time, 2 times a week, FIG. 17) is 37%.
